The source of these data is patent publication US20100222421A1, “Usage of Baicalein in the Preparation of a Pharmaceutical Composition for the Treatment of Traumatic Brain Injury” (National Defense Medical Center, priority 2009, published 2010).

Common to all, as to format: in vivo, rat
Assay [1] relates to IL-1β mRNA. Description: Real-time quantitative RT-PCR, IL-1β mRNA after CCI injury. The settings on record: single-dose 30 mg kg^-1 i.p.; ipsilateral cortex, 6 h after injury; P<0.01. How it is done:
(§1) A previously described CCI injury procedure was utilized (Chen et al., 2003). Male Sprague-Dawley rats, which have body weight of 250-300 g, were anaesthetized with sodium pentobarbital (i.p.; 50 mgkg^−1; Rhone Merieux, Harlow, UK) and placed in a stereotaxic frame. A 5-mm craniotomy was performed over the left parietal cortex, centered on the coronal suture and 3 mm lateral to the sagittal suture. Considerable care was taken to avoid injury to the underlying dura. Injury was made using a pneumatic piston with a rounded metal tip (2.5 mm diameter) that was angled 22.5° C. to the vertical so that the tip was perpendicular with the brain surface at the centre of the craniotomy. A velocity of 4 ms^−1 and a deformation depth 2 mm below the dura were used. […] Body temperature was monitored throughout the surgery by a rectal probe; temperature was maintained at 37.0±0.5° C. using a heated pad. […] Testing after injury was as follows: (1) real-time quantitative RT-PCR analysis for TNF-α, IL-1β and IL-6 mRNA expression at 6 h post-injury (n=7 for each group); (2) FluoroJade B (FJB) staining, TNF-α, IL-1β and IL-6 immunohistochemistry, as well as ELISA at 24 h post-injury to assess degenerative neurons and to determine cytokine expression (n=7 for each group). […] Approximately 50 mg tissue was collected from the ipsilateral (injured) hemisphere and processed for real-time quantitative RT-PCR. […]

Assay [2] relates to TNF-α mRNA. Nature of the assay: Real-time quantitative RT-PCR, TNF-α mRNA after CCI injury. As to conditions: single-dose 30 mg kg^-1 i.p.; ipsilateral cortex, 6 h after injury; P<0.05. How it is done: as §1
The test system of assay [3] is IL-1β protein. Description: ELISA, IL-1β protein after CCI injury. As to conditions: single-dose 30 mg kg^-1 i.p.; ipsilateral cortex, 1 day post-injury; P<0.01. The protocol:
A previously described CCI injury procedure was utilized (Chen et al., 2003). Male Sprague-Dawley rats, which have body weight of 250-300 g, were anaesthetized with sodium pentobarbital (i.p.; 50 mgkg^−1; Rhone Merieux, Harlow, UK) and placed in a stereotaxic frame. A 5-mm craniotomy was performed over the left parietal cortex, centered on the coronal suture and 3 mm lateral to the sagittal suture. Considerable care was taken to avoid injury to the underlying dura. Injury was made using a pneumatic piston with a rounded metal tip (2.5 mm diameter) that was angled 22.5° C. to the vertical so that the tip was perpendicular with the brain surface at the centre of the craniotomy. A velocity of 4 ms^−1 and a deformation depth 2 mm below the dura were used. […] Body temperature was monitored throughout the surgery by a rectal probe; temperature was maintained at 37.0±0.5° C. using a heated pad. […]
Single-dose baicalein (30 mg kg^−1) or a corresponding volume of vehicle was administered i.p. immediately following injury. […] Testing after injury was as follows: (1) real-time quantitative RT-PCR analysis for TNF-α, IL-1β and IL-6 mRNA expression at 6 h post-injury (n=7 for each group); (2) FluoroJade B (FJB) staining, TNF-α, IL-1β and IL-6 immunohistochemistry, as well as ELISA at 24 h post-injury to assess degenerative neurons and to determine cytokine expression (n=7 for each group). […]
(In an ELISA, binding on a coated surface is turned into a signal by an enzyme label.)

As to `O=c1cc(-c2ccccc2)oc2cc(O)c(O)c(O)c12` [baicalein], the “IL-1β mRNA level, % of level in vehicle-treated injured rats” value in assay [1] was 63%. In assay [2], the “TNF-α mRNA level, % of level in vehicle-treated injured rats” value came to 49%. Besides, in assay [3], the “IL-1β protein concentration, % of concentration in vehicle-treated rats” value was determined as 42%.
